Patent US20250129054A1 (Terran Biosciences Inc., priority 2022, published 2025)

Experiments:
[1] = test system: rat elevated zero maze model of anxiety; assay: Rat elevated zero maze model of anxiety (% time on open areas, stretched attend postures); assay type: in vivo, Sprague-Dawley rats; conditions: for anxiogenic effect: across the doses tested, ip
Description: The rat zero-maze model is a refined alternative to the plus-maze, the most widely used animal model of anxiety, and consists of an elevated annular platform, divided equally into four quadrants. Two opposite quadrants are enclosed by Perspex walls on both the inner and the outer edges of the platform, while the remaining two opposite quadrants are open being enclosed only by a Perspex “lip”. Animals will show a preference for the closed areas, and avoidance of the open sections is assumed to stem from a rodent's natural aversion to open, exposed spaces. The primary index of anxiety, which reflect changes in open arm preference, is the percentage of time spent on the open areas. A reduction in the amount of activity on the open areas is considered to reflect an increase in anxiety. Other, ethologically-based behaviours are also assessed as indices of anxiety. One of the most important is stretched attend postures (SAP) from closed to open quadrants. […] Shepherd, J K; et al., (1994) Behavioural and pharmacological validation of the elevated “zero-maze” as an animal model of anxiety. Psychopharmacol., 116:56-64.
Male Sprague-Dawley 200-250 g (Envigo UK) rats were used. Animals were group-housed (5 per cage; cage size: 40×40×20 cm) in a temperature-controlled environment (22±2° C.), under a 12 h light-dark cycle (lights on: 08:00 hours) for one week prior to testing. Food and water were freely available. Number of animals per group=5. Animals were moved into the experimental room 16-24 hours before testing.
The elevated 0-maze comprises a black Perspex annular platform (105 cm diameter, 10 cm width) elevated to 65 cm above ground level, divided equally into four quadrants. Two opposite quadrants are enclosed by clear red Perspex walls (27 cm high) on both the inner and outer edges of the platform, while the remaining two opposite quadrants are surrounded only by a Perspex “lip” (1 cm high) which serves as a tactile guide to animals on these open areas.
Subjects were weighed and tail marked before being injected. After a specified pre-treatment time, subjects were placed in a closed quadrant and a 5-min test period were recorded on videotape for subsequent analysis. The maze were cleaned with 5% methanol/water solution and dried thoroughly between test sessions. Behavioural measures comprise percentage time spent on the open areas (% TO) and frequency of stretched attend postures (SAP) from closed to open quadrants. Since the control groups were all treated identically with the same vehicle these were combined to increase power. The Chlordiazepoxide groups were also treated identically with the same dose so these were also combined to increase power. Animals are scored as being in the open area when all four paws were in an open quadrant and in the closed area only when all four paws have passed over the open-closed divide. All testing were carried out between 9.00 and 16.00 hours.
For each study, a 1-way ANOVA was conducted across vehicle, CDP, and drug treatment groups. Each group was compared to the vehicle group and a p-value for treatment determined by Fishers Least Significant Difference (LSD) test. This analysis was performed in GraphPad Prism (Version 9).
Intraperitoneal (IP): Racemic methylone HCl was formulated in Vehicle 1 (Saline) for injection to concentrations of 1, 3 and 6 mg/mL to provide doses of 5, 15 and 30 mg/kg when administered ip in 5 mL/kg dosing volumes.
Intraperitoneal (IP): S-methylone HCl was formulated in Vehicle 1 (Saline) for injection to concentrations of 0.5, 1, 1.5, 3 and 6 mg/mL to provide doses of 2.5, 5, 7.5, 15 and 30 mg/kg when administered ip in 5 mL/kg dosing volumes.
Intraperitoneal (IP): R-methylone HCl was formulated in Vehicle 1 (Saline) for injection to concentrations of 1, 3 and 6 mg/mL to provide doses of 5, 15 and 30 mg/kg when administered ip in 5 mL/kg dosing volumes. […]

[2] = test system: post-traumatic stress disorder (PTSD); assay: Double-blind, randomized, placebo-controlled clinical trial of methylone-assisted psychotherapy in PTSD; assay type: in vivo, human; conditions: at Study Conclusion; for clinician-rated functional impairment score as measured by SDS / depression as measured by HAM-D: compared to placebo-treated controls; for change in CAPS-5 assessment: with psychotherapy, compared to the placebo group, PTSD participants
Method: A multicenter, randomized, double-blind, placebo-controlled trial is conducted to assess the efficacy and safety of methylone-assisted psychotherapy versus psychotherapy with placebo control in participants diagnosed with at least moderate post-traumatic stress disorder (PTSD).
This multicenter, randomized, double-blind, placebo-controlled trial is conducted at various sites in the United States with IRB approval from each study site. A flexible dose of methylone hydrochloride salt or placebo, followed by a supplemental half-dose unless contraindicated by patient's previous response or medical history, is also administered during the Treatment Period with psychotherapy in at least 3 blinded monthly Experimental Sessions. The Supplemental Dose extends the duration of drug effects on the participants during an Experimental Session. Methylone test groups are further subdivided into specific groups receiving only racemic methylone hydrochloride salt, S-methylone hydrochloride salt, or R-methylone hydrochloride salt. An optional Risk Evaluation and Mitigation Strategy (REMS) Protocol may be implemented for the racemic methylone, S-methylone, and placebo-groups. The Treatment Period lasts for approximately 12 weeks. During the Treatment Period, each Experimental Session is followed by three Intervening Sessions of non-drug psychotherapy. Each Experimental Session involves an overnight stay. The Primary Outcome measure, the change in Clinician Administered PTSD Scale for DSM-5 (CAPS-5), is determined by a blinded Independent Rater (IR) pool multiple times throughout the study. The study consists of separate periods for each participant. Initially, prospective participants undergo a Screening Period involving an initial eligibility assessment, a medical history intake, informed consent, and enrollment of eligible participants. Next, a Preparation Period is undertaken for enrolled participants involving medication tapering and clinical baseline assessments to confirm each participant meets enrollment criteria. As part of the Preparation Period, a detailed assessment of co-morbidities to PTSD is recorded. Participants may remain on prescribed courses of selective serotonin reuptake inhibitor (SSRI) or serotonin and norepinephrine reuptake inhibitor (SNRI) treatment. Dosages and/or frequency of administration of a prescribed SSRI or SNRI may be adjusted to fit within study parameters. Participants may be required to taper a prescribed course of medication in order to maintain eligibility within the study. The Treatment Period consists of three monthly Experimental Sessions and associated Intervening Sessions of integrative behavioral psychotherapy. The Treatment Period lasts approximately 12 weeks. Following the Treatment Period is a Follow-up Period and Study Conclusion. During the Follow-up Period and Study Conclusion, participants complete 4 weeks with no study visits, followed by a Study Conclusion visit.
This study compares the effects of three blinded Experimental Sessions of psychotherapy in combination with flexible doses of methylone or placebo administered as described below. Non-drug preparatory and intervening psychotherapy sessions are also included. Patient's weight is determined for dosage calculation. Initial dose is 100 mg unless this will result in a dosage of less than 1.5 mg/kg of patient weight. Initial dose thereby adjusted upward in 25 mg increments to deliver the lowest dose possible of at least 1.5 mg/kg of patient weight. Initial dose for Experimental Session 2 and 3 is cumulative dose calculated by adding the initial dose plus REMS protocol dose used the previous Experimental Session for each patient.
Randomization occurs prior to the initiation of Experimental Session 1. Each participant is provided the next randomized number in a sequence by a blinded study monitor. […]

[3] = Serial tail vein bleed PK study in SD rats: methylone measured in plasma after IV or oral methylone or oral methylone prodrugs; assay type: in vivo, Sprague Dawley rats; conditions: 10 mg/kg, rat
Method: A pharmacokinetic (PK) study was performed in three male Sprague-Dawley (SD) rats following intravenous (IV) and oral (PO) administration of methylone at 1 mg/kg (IV) and 10 mg/kg (PO) respectively, or test compounds (prodrugs of methylone) at 10 mg/kg (PO). Parent compound (methylone) was measured in plasma.
Samples were sent for method optimization and measurement of parent compound (methylone) via unique calibration lines and following acceptance QC's. Dose formulation concentrations were also measured, and PK parameters were determined (Cmax (ng/mL), Tmax (hr), Cl (ml/min/kg), Vdss (L/kg), t½(hr), AUC0-t (ng/mL*hr), AUC0-inf (ng/mL*hr), MIRT (hr), Bioavailability ([…]) where warranted) using WinNon Lin software. Data (including bioanalytical results and assay performance) were reported in a tabulated format.
Formulation for PO Administration: For PO dosing, the prodrug was formulated in 10% DMSO/20% PEG400/70% water to a concentration of 2 mg free metabolite material/mL. This provided a dose of 10 mg free metabolite/kg when the prodrug was administered PO in 5 mL/kg dosing volumes.
Formulation for IV administration: For IV dosing, rac-methylone was formulated as solution in saline to a concentration of 0.5 mg free metabolite material/mL. This provided a dose of 1 mg free metabolite/kg when administered IV in 2 mL/kg dosing volumes.
The pharmacokinetic properties of the synthesized methylone prodrugs after oral administration in a rat model were assessed. The concentration of methylone was measured in each rat at various sampling timepoints after IV or oral administration of rac-methylone or the synthesized methylone prodrugs to rats.
Dose formulations were made at equivalent concentrations of active compound (methylone) adjusted for molecular weight of the compounds. The synthesized methylone prodrugs or analogs were dosed at 10 mg/kg oral (PO) nominal dose. Nominal doses were used in PK parameter determinations. The parent compound (methylone) was dosed at 1 mg/kg intravenous (IV) and 10 mg/kg (PO).

[4] = 30 mg/kg ip, 30 min pretreatment, vs vehicle and chlordiazepoxide 6 mg/kg, male SD rats
[5] = specific (sufficient) doses ip, compared with chlordiazepoxide 6 mg/kg
[6] = dose response over 5, 15 and 30 mg/kg ip, male SD rats

With `CN[C@@H](C)C(=O)c1ccc2c(c1)OCO2` [S-methylone] the “frequency of SAPs” value ([1]; 2.5 mg/kg and 5 mg/kg ip, male SD rats) was “dose dependent increase in SAPs”, the “frequency of SAPs” value ([1]; 7.5 mg/kg, 15 mg/kg and 30 mg/kg ip, male SD rats) was “dose dependent decrease in SAPS” and the “frequency of SAPs” value [1, 4] was “even more effective than chlordiazepoxide at reducing SAPs”. The “time spent in the open arms” value [1, 4] was “the time in the open arms increased”, the anxiogenic effect ([1]; male SD rats) was “show anxiogenic effects at lower doses” and the “frequency of SAPs” value [1, 5] was “decreased the frequency of SAPs as effectively as the benzodiazepine chlordiazepoxide”. The “time in the open arms” value [1, 5] was “increase time in the open arms”, the “time spent in the open arms” value ([1]; trend over 5 mg/kg, 7.5 mg/kg and 15 mg/kg ip, male SD rats) was “the time spent in the open arms decreased as the dose increased” and the “daytime sleepiness as measured by ESS” value [2] was “significant improvement in lessening daytime sleepiness”. For the same compound, the “clinician-rated functional impairment score as measured by SDS” value [2] was “significant improvement”, the “depression as measured by HAM-D” value [2] was “significant improvement” and the “change in CAPS-5 assessment” value [2] was “significant mean reduction”.
For `CN[C@H](C)C(=O)c1ccc2c(c1)OCO2` [R-methylone], the “frequency of SAPs” value [1, 4] was “significantly decreasing SAPs to the same level as chlordiazepoxide”, the “time spent in the open arms” value [1, 4] was “as effective as chlordiazepoxide” and the anxiogenic effect ([1]; male SD rats) was “did not show any anxiogenic effect at any dose”. For the same compound, the “frequency of SAPs” value [1, 6] was “dose dependent decrease in SAPs”, the “time spent in the open arms” value [1, 6] was “dose dependent increase in time spent in the open arms” and the “frequency of SAPs” value [1, 5] was “decreased the frequency of SAPs as effectively as the benzodiazepine chlordiazepoxide”. For the same compound, the “time in the open arms” value [1, 5] was “increase time in the open arms”, the “daytime sleepiness as measured by ESS” value [2] was “significant improvement in lessening daytime sleepiness” and the “clinician-rated functional impairment score as measured by SDS” value [2] was “significant improvement”. The “depression as measured by HAM-D” value [2] was “significant improvement” and the “change in CAPS-5 assessment” value [2] was “significant mean reduction”.
With `CC(C(=O)c1ccc2c(c1)OCO2)N(C)C(=O)CCCC(=O)O` (centres unmarked) [Compound 8D, 4-{[2-(2H-1,3-Benzodioxol-5-yl)-1-methyl-2-oxo-ethyl]-N-methylcarbamoyl}butyric acid] the “Plasma Concentrations of metabolite methylone” value (shortened to “Plasma Concentrations”) ([3]; 0.500 h after oral dosing of the prodrug, individual animals) was “BLQ (Below Lower Limit of Quantification (0.5 ng/mL))”, the “Plasma Concentrations” value ([3]; 0.500 h after oral dosing of the prodrug, mean) was “BLQ (Below Lower Limit of Quantification (0.5 ng/mL))” and the “Plasma Concentrations” value ([3]; 1.00 h after oral dosing of the prodrug, individual animals) was “BLQ (Below Lower Limit of Quantification (0.5 ng/mL))”. For the same compound, the “Plasma Concentrations” value ([3]; 1.00 h after oral dosing of the prodrug, mean) was “BLQ (Below Lower Limit of Quantification (0.5 ng/mL))”, the “Plasma Concentrations” value ([3]; 2.00 h after oral dosing of the prodrug, individual animals) was “BLQ (Below Lower Limit of Quantification (0.5 ng/mL))” and the “Plasma Concentrations” value ([3]; 2.00 h after oral dosing of the prodrug, mean) was “BLQ (Below Lower Limit of Quantification (0.5 ng/mL))”. The “Plasma Concentrations” value ([3]; 4.00 h after oral dosing of the prodrug, individual animals) was “BLQ (Below Lower Limit of Quantification (0.5 ng/mL))”, the “Plasma Concentrations” value ([3]; 4.00 h after oral dosing of the prodrug, mean) was “BLQ (Below Lower Limit of Quantification (0.5 ng/mL))” and the “Plasma Concentrations” value ([3]; 7.00 h after oral dosing of the prodrug, individual animals) was “BLQ (Below Lower Limit of Quantification (0.5 ng/mL))”. For the same compound, the “Plasma Concentrations” value ([3]; 7.00 h after oral dosing of the prodrug, mean) was “BLQ (Below Lower Limit of Quantification (0.5 ng/mL))”, the “Plasma Concentrations” value ([3]; 24.0 h after oral dosing of the prodrug, individual animals) was “BLQ (Below Lower Limit of Quantification (0.5 ng/mL))” and the “Plasma Concentrations” value ([3]; 24.0 h after oral dosing of the prodrug, mean) was “BLQ (Below Lower Limit of Quantification (0.5 ng/mL))”.
